Source: ChEMBL document CHEMBL4602605, “Fluoroquinolones structural and medicinal developments (2013-2018): Where are we now?” (Bioorg Med Chem, 2019)
Converted amounts (≈) assume the structure as drawn.

Columns and labels:
Staphylococcus aureus [1] = experiment: Antimicrobial activity against Staphylococcus aureus ATCC 6538 by agar dilution method; type: functional
Pseudomonas aeruginosa [2] = experiment: Antimicrobial activity against Pseudomonas aeruginosa ATCC 9027 by agar well diffusion method; type: functional
Escherichia coli [3] = experiment: Antimicrobial activity against Escherichia coli ATCC 8739 by agar dilution method; type: functional
Escherichia coli [4] = experiment: Antimicrobial activity against Escherichia coli ATCC 25922 incubated for 18 to 24 hrs by disk diffusion method; type: functional
Staphylococcus aureus [5] = experiment: Antimicrobial activity against Staphylococcus aureus ATCC 25923 incubated for 18 to 24 hrs by disk diffusion method; type: functional
Pseudomonas aeruginosa [6] = experiment: Antimicrobial activity against Pseudomonas aeruginosa ATCC 27853 incubated for 18 to 24 hrs by disk diffusion method; type: functional
Bacillus subtilis = experiment: Antimicrobial activity against Bacillus subtilis 10B incubated for 18 to 24 hrs by disk diffusion method; type: functional
Staphylococcus aureus [7] = experiment: Antimicrobial activity against Staphylococcus aureus ATCC 25923 incubated for 18 to 24 hrs by microbroth dilution method; type: functional
Bacillus cereus = experiment: Antimicrobial activity against Bacillus cereus 709 Roma incubated for 18 to 24 hrs by microbroth dilution method; type: functional
Pseudomonas aeruginosa [8] = experiment: Antimicrobial activity against Pseudomonas aeruginosa ATCC 43288 incubated for 18 to 24 hrs by microbroth dilution method; type: functional
[9] = test system: Mycolicibacterium smegmatis; experiment: Antimicrobial activity against Mycobacterium smegmatis ATCC 607 incubated for 48 to 72 hrs by microbroth dilution method; type: functional
Enterococcus faecalis = experiment: Antimicrobial activity against Enterococcus faecalis ATCC 29212 incubated for 18 to 24 hrs by microbroth dilution method; type: functional
[10] = test system: Yersinia pseudotuberculosis; experiment: Antimicrobial activity against Yersinia pseudotuberculosis ATCC 911 incubated for 18 to 24 hrs by microbroth dilution method; type: functional
Staphylococcus aureus [11] = experiment: Antimicrobial activity against methicillin-resistant Staphylococcus aureus ATCC 25923 by microdilution method; type: functional
Staphylococcus aureus [12] = experiment: Antimicrobial activity against Staphylococcus aureus ATCC 29213 by microdilution method; type: functional
Escherichia coli [13] = experiment: Antimicrobial activity against multidrug resistance Escherichia coli ATCC 35218 by microdilution method; type: functional
Escherichia coli [14] = experiment: Antimicrobial activity against Escherichia coli ATCC […] by microdilution method; type: functional
Helicobacter pylori [15] = experiment: Antimicrobial activity against Helicobacter pylori clinical isolate 2 after 7 days by two-fold agar dilution method; type: functional; settings: clinical isolate 2, 168 h
Helicobacter pylori [16] = experiment: Antimicrobial activity against Helicobacter pylori clinical isolate 1 after 7 days by two-fold agar dilution method; type: functional; settings: clinical isolate 1, 168 h
Aspergillus clavatus = experiment: Antifungal activity against Aspergillus clavatus after overnight incubation by agar well diffusion method; type: functional
PC-3 = experiment: Growth inhibition of human PC3 cells by MTT assay; type: functional, cell-based
Staphylococcus aureus [17] = experiment: Antimicrobial activity against methicillin-susceptible Staphylococcus aureus ATCC 29213 incubated for 16 hrs by CLSI method; type: functional; settings: ATCC 29213, 16 h
Staphylococcus aureus [18] = experiment: Antimicrobial activity against healthcare-acquired methicillin-resistant Staphylococcus aureus NRS70 incubated for 16 hrs by CLSI method; type: functional; settings: NRS70, 16 h
Candida albicans = experiment: Antifungal activity against Candida albicans after overnight incubation by agar well diffusion method; type: functional
[19] = test system: Mycobacterium tuberculosis; experiment: Antimicrobial activity against Mycobacterium tuberculosis H37Rv incubated for 10 days by microbroth dilution method; type: functional; settings: 240 h

SMILES: CCn1cc(C(=O)O)c(=O)c2cc(F)c(N3CCOCC3)cc21
- MIC (Staphylococcus aureus [1]): 0.32 µg/mL (≈ 0.999 µM)
- MIC (Pseudomonas aeruginosa [2]): 128 µg/mL (≈ 400 µM)
- MIC (Escherichia coli [3]): 16 µg/mL (≈ 50 µM)

SMILES: CCn1cc(C(=O)O)c(=O)c2cc(F)c(Cl)cc21
- MIC (Escherichia coli [4]): 0.355 µg/mL (≈ 1.32 µM)
- MIC (Staphylococcus aureus [5]): 0.535 µg/mL (≈ 1.98 µM)
- MIC (Pseudomonas aeruginosa [6]): 116 µg/mL (≈ 432 µM)
- MIC (Bacillus subtilis): 0.125 µg/mL (≈ 0.464 µM)

SMILES: CCn1cc(C(=O)O)c(=O)c2cc(F)c(Nn3c(=O)cc[nH]c3=O)c(F)c21
- MIC (Escherichia coli [4]): 120 µg/mL (≈ 317 µM)
- MIC (Staphylococcus aureus [5]): 310 µg/mL (≈ 819 µM)
- MIC (Pseudomonas aeruginosa [6]): > 500 µg/mL
- MIC (Bacillus subtilis): > 500 µg/mL

SMILES: CCn1cc(C(=O)O)c(=O)c2cc(F)c(N3CCN(Cn4nc(CN5CCN(c6ccc([N+](=O)[O-])cc6)CC5)n(-c5ccccc5)c4=S)CC3)cc21
- MIC (Staphylococcus aureus [7]): 0.24 to 0.48 µg/mL (≈ 0.33 to 0.66 µM)
- MIC (Bacillus cereus): 0.12 to 0.24 µg/mL (≈ 0.165 to 0.33 µM)
- MIC (Pseudomonas aeruginosa [8]): 0.03 to 0.24 µg/mL (≈ 0.0412 to 0.33 µM)
- MIC [9]: 0.244 to 0.25 µg/mL (≈ 0.335 to 0.343 µM)
- MIC (Enterococcus faecalis): 0.122 to 0.25 µg/mL (≈ 0.168 to 0.343 µM)
- MIC [10]: 0.06 µg/mL (≈ 0.0824 µM)

SMILES: CCN1CCN(N(Cn2nc3c(F)cc4c(=O)c(C(=O)O)cn(C5CC5)c4n3c2=O)N2CCN(CC)CC2)CC1
- MIC (Staphylococcus aureus [11]): ≤ 0.5 µg/mL
- MIC (Staphylococcus aureus [12]): ≤ 0.125 µg/mL
- MIC (Escherichia coli [13]): ≤ 0.25 µg/mL
- MIC (Escherichia coli [14]): ≤ 0.125 µg/mL

SMILES: Cc1ccc(-n2nnc3c4c(cc(F)c32)c(=O)c(C(=O)O)cn4C2CC2)cc1
- MIC (Helicobacter pylori [15]): 1.3 µg/mL (≈ 3.44 µM)
- MIC (Helicobacter pylori [16]): 5 µg/mL (≈ 13.2 µM)

SMILES: O=C(O)c1cn(C2CC2)c2c(cc(F)c3nn(CN(N4CCCCC4)N4CCCCC4)c(=O)n32)c1=O
- MIC (Staphylococcus aureus [11]): ≤ 8 µg/mL
- MIC (Staphylococcus aureus [12]): ≤ 1 µg/mL
- MIC (Escherichia coli [13]): ≤ 4 µg/mL
- MIC (Escherichia coli [14]): ≤ 1 µg/mL

SMILES: COc1c(N2CCN(C)CC2)c(F)cc2c(=O)c(C(=O)N/N=C\c3cc(Br)ccc3O)cn(C3CC3)c12
- inhibition zone (IZ) (Aspergillus clavatus): 12 mm
- IC50 (PC-3): 12 µg/mL (≈ 21 µM)

SMILES: CN1CCN(N(Cn2nc3c(F)cc4c(=O)c(C(=O)O)cn(C5CC5)c4n3c2=O)N2CCN(C)CC2)CC1
- MIC (Staphylococcus aureus [11]): ≤ 2 µg/mL
- MIC (Staphylococcus aureus [12]): ≤ 0.25 µg/mL
- MIC (Escherichia coli [13]): ≤ 2 µg/mL
- MIC (Escherichia coli [14]): ≤ 0.25 µg/mL

SMILES: Nc1c(Nc2ccc(F)cc2)c(F)cc2c(=O)c(C(=O)O)cn(C3CC3)c12
- MIC (Helicobacter pylori [15]): 5 µg/mL (≈ 13.5 µM)
- MIC (Helicobacter pylori [16]): 2.5 µg/mL (≈ 6.73 µM)

SMILES: COc1ccc(-n2nnc3c4c(cc(F)c32)c(=O)c(C(=O)O)cn4C2CC2)cc1
- MIC (Helicobacter pylori [15]): 1.3 µg/mL (≈ 3.3 µM)
- MIC (Helicobacter pylori [16]): 2.5 µg/mL (≈ 6.34 µM)

SMILES: CCn1cc(C(=O)O)c(=O)c2cc(F)c(Nc3ncccn3)cc21
- MIC (Escherichia coli [4]): 510 µg/mL (≈ 1550 µM)
- MIC (Staphylococcus aureus [5]): 515 µg/mL (≈ 1570 µM)
- MIC (Pseudomonas aeruginosa [6]): > 500 µg/mL
- MIC (Bacillus subtilis): > 500 µg/mL

SMILES: CCn1cc(C(=O)O)c(=O)c2cc(F)c(NNc3n[nH]c(N)n3)c(F)c21
- MIC (Escherichia coli [4]): 390 µg/mL (≈ 1070 µM)
- MIC (Staphylococcus aureus [5]): 240 µg/mL (≈ 657 µM)
- MIC (Pseudomonas aeruginosa [6]): > 500 µg/mL
- MIC (Bacillus subtilis): > 500 µg/mL

SMILES: CCn1cc(C(=O)O)c(=O)c2cc(F)c(-n3cc(CO[C@H]4O[C@@H](C)[C@H](OC(C)=O)[C@@H](OC(C)=O)[C@H]4OC(C)=O)nn3)c(F)c21
- MIC (Staphylococcus aureus [11]): ≤ 16 µg/mL
- MIC (Staphylococcus aureus [12]): ≤ 4 µg/mL
- MIC (Escherichia coli [13]): ≤ 16 µg/mL
- MIC (Escherichia coli [14]): ≤ 4 µg/mL

SMILES: COc1c(N2CC3CCCCC3C2)c(F)cc2c(=O)c(C(=O)N3CCSC3)cn(C3CC3)c12 (stereo unspecified)
- MIC90 (Staphylococcus aureus [17]): 0.79 µg/mL (≈ 1.68 µM)
- MIC90 (Staphylococcus aureus [18]): 0.79 µg/mL (≈ 1.68 µM)

SMILES: COc1c(N2CCN(C)CC2)c(F)cc2c(=O)c(C(=O)N/N=C\c3ccccc3)cn(C3CC3)c12
- inhibition zone (IZ) (Aspergillus clavatus): 11 mm
- IC50 (PC-3): 16.3 µg/mL (≈ 34.1 µM)

SMILES: CCn1cc(C(=O)O)c(=O)c2cc(F)c(N3CCCC(C)C3)cc21 (stereo unspecified)
- MIC (Staphylococcus aureus [1]): < 0.125 µg/mL
- MIC (Pseudomonas aeruginosa [2]): 1.28 µg/mL (≈ 3.85 µM)
- MIC (Escherichia coli [3]): 1.28 µg/mL (≈ 3.85 µM)

SMILES: COc1c(N2CCN(C)CC2)c(F)cc2c(=O)c(C(=O)N/N=C\c3cccc([N+](=O)[O-])c3)cn(C3CC3)c12
- inhibition zone (IZ) (Candida albicans): 12 mm
- inhibition zone (IZ) (Aspergillus clavatus): 10 mm

SMILES: CCn1cc(C(=O)O)c(=O)c2cc(F)c(F)cc21
- MIC (Escherichia coli [4]): 24.6 µg/mL (≈ 97.3 µM)
- MIC (Staphylococcus aureus [5]): 369 µg/mL (≈ 1460 µM)
- MIC (Pseudomonas aeruginosa [6]): 138 µg/mL (≈ 547 µM)
- MIC (Bacillus subtilis): 29.6 µg/mL (≈ 117 µM)

SMILES: CCO/N=C1/CN(CCCn2cc(CN3CCCC4CN(c5c(F)cc6c(=O)c(C(=O)O)cn(C7CC7)c6c5OC)CC43)nn2)c2ccc(F)cc21 (stereo unspecified)
- MIC [19]: 12.5 µg/mL (≈ 17.4 µM)

SMILES: COc1c(N2CC3=CCCCC3C2)c(F)cc2c(=O)c(C(=O)N3CCSC3)cn(C3CC3)c12 (stereo unspecified)
- MIC90 (Staphylococcus aureus [17]): 6.3 µg/mL (≈ 13.4 µM)
- MIC90 (Staphylococcus aureus [18]): 6.3 µg/mL (≈ 13.4 µM)

SMILES: COc1c(F)c(F)cc2c(=O)c(C(=O)N3CCSC3)cn(C3CC3)c12
- MIC90 (Staphylococcus aureus [17]): > 201 µg/mL
- MIC90 (Staphylococcus aureus [18]): > 201 µg/mL

SMILES: COc1c(N2CC3CCCCC3C2)c(F)cc2c(=O)c(C(=O)Nc3nccs3)cn(C3CC3)c12 (stereo unspecified)
- MIC90 (Staphylococcus aureus [17]): > 201 µg/mL
- MIC90 (Staphylococcus aureus [18]): > 201 µg/mL

SMILES: Nc1c(Nc2ccccc2)c(F)cc2c(=O)c(C(=O)O)cn(C3CC3)c12
- MIC (Helicobacter pylori [15]): 1.3 µg/mL (≈ 3.68 µM)
- MIC (Helicobacter pylori [16]): 0.6 µg/mL (≈ 1.7 µM)

SMILES: COc1c(N2CCN(C)CC2)c(F)cc2c(=O)c(C(=O)N/N=C\c3ccc(F)cc3)cn(C3CC3)c12
- inhibition zone (IZ) (Aspergillus clavatus): 11 mm

SMILES: CCn1cc(C(=O)O)c(=O)c2cc(F)c(Nn3c(=O)[nH]cc(F)c3=O)c(F)c21
- MIC (Escherichia coli [4]): 120 µg/mL (≈ 303 µM)
- MIC (Staphylococcus aureus [5]): 390 µg/mL (≈ 984 µM)
- MIC (Pseudomonas aeruginosa [6]): > 500 µg/mL
- MIC (Bacillus subtilis): > 500 µg/mL
